Where “and” joins values, the source holds several entries; their conditions need not be identical. Identical values can stand only once. One block for each compound: values may come before it. Calls of active or inactive are those of the source.
Tests used:
[1] = target: T1, Glycogen synthase kinase-3 alpha (Homo sapiens, UniProt P49840); experiment: Inhibition of Human GSK-3 alpha Activity Measured in Biochemical System Using Microfluidics - 2063-06_Inhibitor_Dose_DryPowder_Activity_Set2. [Related pubchem assays (depositor defined):AID2709]
T1 sequence (P49840 whole entry): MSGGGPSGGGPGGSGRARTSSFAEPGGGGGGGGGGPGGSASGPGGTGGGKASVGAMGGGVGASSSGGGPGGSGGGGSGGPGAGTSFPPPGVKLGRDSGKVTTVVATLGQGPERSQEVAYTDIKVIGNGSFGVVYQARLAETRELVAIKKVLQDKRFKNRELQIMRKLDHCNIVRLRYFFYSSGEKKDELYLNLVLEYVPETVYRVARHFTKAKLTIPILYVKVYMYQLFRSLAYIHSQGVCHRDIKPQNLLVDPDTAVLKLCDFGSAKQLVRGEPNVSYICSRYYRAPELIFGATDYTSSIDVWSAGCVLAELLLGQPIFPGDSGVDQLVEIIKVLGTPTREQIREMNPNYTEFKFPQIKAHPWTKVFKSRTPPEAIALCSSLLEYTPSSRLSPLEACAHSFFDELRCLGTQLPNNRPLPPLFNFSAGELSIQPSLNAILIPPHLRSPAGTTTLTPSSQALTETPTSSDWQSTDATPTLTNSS

[2] = target: T2, Cyclin-dependent kinase 5/CDK5 activator 1 (Homo sapiens, UniProt Q00535); experiment: inhibitors of human CDK5 activity – biochemical, microfluidic mobility shift, dry powder, set 2, selectivity assay for GSK3beta inhibitor project, dose response (AID 623979); assay type: functional
T2 sequence (Q00535 whole entry): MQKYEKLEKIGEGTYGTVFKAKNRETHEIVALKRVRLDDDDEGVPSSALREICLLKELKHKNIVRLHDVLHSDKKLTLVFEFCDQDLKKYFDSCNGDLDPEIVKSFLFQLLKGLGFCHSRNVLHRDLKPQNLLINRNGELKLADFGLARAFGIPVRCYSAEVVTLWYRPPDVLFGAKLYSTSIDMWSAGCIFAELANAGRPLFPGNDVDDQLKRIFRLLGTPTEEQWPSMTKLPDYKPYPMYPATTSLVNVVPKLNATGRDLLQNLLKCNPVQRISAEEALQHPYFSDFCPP
T2 sequence (Q15078 whole entry, further chain): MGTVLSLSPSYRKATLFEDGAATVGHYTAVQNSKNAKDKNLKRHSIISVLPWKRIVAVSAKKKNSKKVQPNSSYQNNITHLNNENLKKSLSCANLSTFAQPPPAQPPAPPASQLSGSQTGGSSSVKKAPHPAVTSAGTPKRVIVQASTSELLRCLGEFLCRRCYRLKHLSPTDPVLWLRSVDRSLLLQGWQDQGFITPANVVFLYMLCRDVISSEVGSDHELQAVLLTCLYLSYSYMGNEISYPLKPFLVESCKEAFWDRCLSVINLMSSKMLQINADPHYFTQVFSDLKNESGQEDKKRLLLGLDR

[3] = target: T3, Glycogen synthase kinase-3 beta (Homo sapiens, UniProt P49841); experiment: inhibition of human GSK3B activity – biochemical, microfluidics, dry powder samples, set 2, dose response (AID 623989); assay type: functional
T3 sequence (P49841 whole entry): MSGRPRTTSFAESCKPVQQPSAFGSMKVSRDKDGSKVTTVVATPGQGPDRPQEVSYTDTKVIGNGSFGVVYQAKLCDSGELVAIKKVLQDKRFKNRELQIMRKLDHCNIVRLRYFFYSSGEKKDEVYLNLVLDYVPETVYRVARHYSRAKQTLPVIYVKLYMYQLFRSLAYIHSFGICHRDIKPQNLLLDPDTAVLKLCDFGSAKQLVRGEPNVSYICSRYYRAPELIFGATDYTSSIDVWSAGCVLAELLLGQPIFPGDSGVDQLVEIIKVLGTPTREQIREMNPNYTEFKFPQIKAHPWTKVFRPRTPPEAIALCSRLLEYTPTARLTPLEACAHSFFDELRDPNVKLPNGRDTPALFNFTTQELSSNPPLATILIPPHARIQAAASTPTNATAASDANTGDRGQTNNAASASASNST

[4] = target: T3, Glycogen synthase kinase-3 beta; experiment: Inhibition of Human GSK-3 beta Activity Measured in Biochemical System Using Microfluidics - 2063-05_Inhibitor_Dose_DryPowder_Activity_Set2. [Related pubchem assays (depositor defined):AID2709]
[5] = target: T1, Glycogen synthase kinase-3 alpha; experiment: GSK3A enzyme blockers, homolog specificity check – biochemical, microfluidics, dry powder samples, set 2, selectivity assay for GSK3beta inhibitor project, dose response (AID 623978); assay type: functional
[6] = target: T2, Cyclin-dependent kinase 5/CDK5 activator 1; experiment: human CDK5 activity blockade – biochemical, microfluidic mobility shift, dry powder, selectivity assay for GSK-3 alpha inhibitor project, dose response (AID 588430)
[7] = target: T4, High affinity choline transporter 1 (Homo sapiens, UniProt Q9GZV3); experiment: human choline transporter blockers, potency – cell-based, 10-point CRC, membrane potential dye, dose response (AID 588401); assay type: functional;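 note: membrane potential dye fluorescence of choline-evoked depolarization via CHT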
T4 sequence (Q9GZV3 whole entry): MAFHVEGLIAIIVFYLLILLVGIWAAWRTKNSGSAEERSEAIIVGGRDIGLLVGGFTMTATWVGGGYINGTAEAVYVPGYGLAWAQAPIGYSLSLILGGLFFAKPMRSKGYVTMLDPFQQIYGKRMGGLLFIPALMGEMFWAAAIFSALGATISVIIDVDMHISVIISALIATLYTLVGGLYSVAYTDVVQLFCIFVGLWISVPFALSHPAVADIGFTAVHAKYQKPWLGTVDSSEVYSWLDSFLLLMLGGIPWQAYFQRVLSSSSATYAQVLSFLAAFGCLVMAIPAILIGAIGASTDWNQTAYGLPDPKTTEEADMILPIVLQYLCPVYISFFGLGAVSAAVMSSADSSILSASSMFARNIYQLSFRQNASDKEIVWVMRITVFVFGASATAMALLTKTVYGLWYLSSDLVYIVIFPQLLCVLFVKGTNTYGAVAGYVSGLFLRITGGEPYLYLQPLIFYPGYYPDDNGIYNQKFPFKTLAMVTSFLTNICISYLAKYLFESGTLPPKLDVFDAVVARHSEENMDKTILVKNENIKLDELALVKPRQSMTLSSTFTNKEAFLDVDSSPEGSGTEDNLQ

[8] = target: T4, High affinity choline transporter 1; experiment: human choline transporter blockers, potency – cell-based, 5-point CRC, membrane potential dye, dose response (AID 504840); assay type: functional
[9] = target: T4, High affinity choline transporter 1; experiment: human choline transporter radiolabel uptake blockers – cell-based, 3H-choline uptake, CHT LV-AA trafficking mutant, CRC, dose response (AID 602208); assay type: functional
[10] = target: T5, Orexin/Hypocretin receptor type 1 (Homo sapiens, UniProt O43613); experiment: Homogeneous Time Resolved Fluorescence (HTRF)-based cell-based high throughput dose response assay for antagonists of the orexin 1 receptor (OX1R; HCRTR1). [Related pubchem assays (depositor defined):AID434989, AID435008, AID463079, AID485270, AID492963, AID492964, AID492965, AID493232, AID504717, AID504718]; assay type: functional
T5 sequence (O43613 whole entry): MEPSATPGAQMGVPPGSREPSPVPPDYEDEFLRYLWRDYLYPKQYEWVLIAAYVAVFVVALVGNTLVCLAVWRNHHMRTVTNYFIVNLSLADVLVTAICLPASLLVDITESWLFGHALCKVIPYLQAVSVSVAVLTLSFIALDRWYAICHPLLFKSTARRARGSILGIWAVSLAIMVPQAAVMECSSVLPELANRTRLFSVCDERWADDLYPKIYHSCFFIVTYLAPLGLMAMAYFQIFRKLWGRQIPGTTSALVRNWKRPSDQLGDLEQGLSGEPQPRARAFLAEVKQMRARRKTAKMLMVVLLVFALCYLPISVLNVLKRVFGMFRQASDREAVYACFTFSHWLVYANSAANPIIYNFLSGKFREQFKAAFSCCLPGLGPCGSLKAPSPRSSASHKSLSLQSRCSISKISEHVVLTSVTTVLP

Orexin receptor type 2 [11] = target: T6, Orexin receptor type 2 (Homo sapiens, UniProt O43614); experiment: Counterscreen assay for antagonists of the orexin 1 receptor (OX1R; HCRTR1): Fluorescence-based cell-based dose response assay for antagonists of the orexin 2 receptor (OX2R; HCRTR2), run by assay provider.; assay type: functional
T6 sequence (O43614 whole entry): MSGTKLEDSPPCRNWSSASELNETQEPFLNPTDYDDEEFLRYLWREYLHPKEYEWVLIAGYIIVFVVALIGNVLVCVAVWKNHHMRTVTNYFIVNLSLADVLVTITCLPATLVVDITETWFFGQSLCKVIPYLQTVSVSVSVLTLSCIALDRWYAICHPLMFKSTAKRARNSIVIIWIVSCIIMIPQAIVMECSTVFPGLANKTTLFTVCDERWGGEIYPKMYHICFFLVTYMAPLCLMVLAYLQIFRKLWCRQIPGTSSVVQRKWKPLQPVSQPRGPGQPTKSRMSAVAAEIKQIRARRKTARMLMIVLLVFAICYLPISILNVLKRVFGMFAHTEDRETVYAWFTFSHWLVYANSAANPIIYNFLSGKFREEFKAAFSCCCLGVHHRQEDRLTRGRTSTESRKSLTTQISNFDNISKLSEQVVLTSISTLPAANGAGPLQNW

[12] = (§1) Counterscreen for antagonists of the orexin 1 receptor (OX1R; HCRTR1): Fluorescence-based cell-based high throughput dose response assay to identify antagonists of the parental CHO cell line. [Related pubchem assays (depositor defined):AID434989, AID435008, AID463079, AID485270, AID492963, AID492964, AID492965, AID493232, AID504699, AID504701]; assay type: functional
CHO-K1 = experiment: as §1, with “Homogeneous time resolved fluorescence (HTRF)-based” for “Fluorescence-based”, “cell-based” for “cell-based high throughput”, “CHO-K1” for “CHO”; assay type: functional; settings: Cricetulus griseus;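 note: potency for inhibition of ATP-stimulated IP1 production as antagonists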
[13] = target: T5, Orexin/Hypocretin receptor type 1; experiment: Fluorescence-based cell-based high throughput dose response assay for antagonists of the orexin 1 receptor (OX1R; HCRTR1). [Related pubchem assays (depositor defined):AID434989, AID435008, AID463079, AID485270, AID492963, AID492964, AID492965, AID493232, AID504717, AID504718]; assay type: functional
Orexin receptor type 2 [14] = target: T6, Orexin receptor type 2; experiment: Counterscreen assay for antagonists of the orexin 1 receptor (OX1R; HCRTR1): Homogeneous Time Resolved Fluorescence (HTRF)-based cell-based dose response assay for antagonists of the orexin 2 receptor (OX2R; HCRTR2), run by assay provider.; assay type: functional
[15] = target: Peroxisome proliferator-activated receptor gamma/Nuclear receptor corepressor 2 (Homo sapiens, UniProt P37231+Q9Y618); experiment: Counterscreen for NR2E3 inverse agonists: TR-FRET-based biochemical high throughput dose response assay to identify inverse agonists of the interaction between peroxisome proliferator-activated receptor gamma (PPARg) and nuclear receptor co-repressor 2 (NCOR2).; assay type: functional
[16] = target: Photoreceptor-specific nuclear receptor (Homo sapiens, UniProt Q9Y5X4); experiment: ligands suppressing NR2E3 nuclear receptor activity – biochemical, TR-FRET, dose response (AID 463256); assay type: functional
[17] = target: T7, Beta-2 adrenergic receptor (Homo sapiens, UniProt P07550); experiment: Dose response for HTS for Beta-2AR agonists via FAP method from Powderset1.; assay type: functional
T7 sequence (P07550 whole entry): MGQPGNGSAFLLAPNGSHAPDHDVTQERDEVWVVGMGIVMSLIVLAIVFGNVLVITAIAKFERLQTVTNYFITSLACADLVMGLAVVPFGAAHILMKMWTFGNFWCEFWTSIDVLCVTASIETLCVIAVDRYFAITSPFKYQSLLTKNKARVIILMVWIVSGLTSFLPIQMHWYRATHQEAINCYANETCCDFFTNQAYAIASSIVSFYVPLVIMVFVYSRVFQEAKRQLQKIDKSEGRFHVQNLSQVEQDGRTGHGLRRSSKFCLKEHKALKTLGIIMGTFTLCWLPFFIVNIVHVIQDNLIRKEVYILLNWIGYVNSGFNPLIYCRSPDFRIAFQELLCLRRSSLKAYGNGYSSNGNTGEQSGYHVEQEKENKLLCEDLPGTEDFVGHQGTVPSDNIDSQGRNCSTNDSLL

[18] = target: T7, Beta-2 adrenergic receptor; experiment: ADRB2 activation measured by internalization – cell-based, FAP fluorogen, flow cytometry, cherry pick 1, dose response (AID 588763); assay type: functional
[19] = target: Latent membrane protein 1 (Human herpesvirus 4 (strain B95-8), UniProt P03230); experiment: LMP1 TES1 pathway selectivity over dsRED control – imaging, HEK293T, dual-color eGFP/dsRED, cherry-picks, selectivity assay for LMP1 NF-kB inhibitor project, dose response (AID 588398); assay type: functional, cell-based
Latent membrane protein 1, sequence (P03230 whole entry): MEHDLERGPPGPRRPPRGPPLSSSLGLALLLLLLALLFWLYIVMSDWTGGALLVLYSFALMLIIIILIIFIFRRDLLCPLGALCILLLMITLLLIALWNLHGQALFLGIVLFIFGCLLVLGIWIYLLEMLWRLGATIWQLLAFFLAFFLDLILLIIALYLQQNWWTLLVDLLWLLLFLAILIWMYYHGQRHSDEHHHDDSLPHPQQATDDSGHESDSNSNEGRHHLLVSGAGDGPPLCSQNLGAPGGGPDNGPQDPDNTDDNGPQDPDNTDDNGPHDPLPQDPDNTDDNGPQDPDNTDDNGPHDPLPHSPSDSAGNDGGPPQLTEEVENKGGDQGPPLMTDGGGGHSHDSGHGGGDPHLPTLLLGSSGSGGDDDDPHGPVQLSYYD

[20] = target: Apoptotic protease-activating factor 1 (Homo sapiens, UniProt O14727); assay type: functional
HEK293 = experiment: EBV LMP1 TES2 canonical NF-kB signalling blockers – cell-based, HEK293, luciferase, cherry-pick, dose response (AID 588343); assay type: functional; settings: Homo sapiens
INS1 [21] = experiment: Glucose-induced Insulin secretion ELISA Measured in Cell-Based System Using Plate Reader - 2061-05_Inhibitor_Dose_DryPowder_Activity. [Related pubchem assays (depositor defined):AID435007]; assay type: functional; settings: Rattus norvegicus
INS1 [22] = experiment: Primary beta islet insulin ELISA Measured in Cell-Based System Using Plate Reader - 2061-09_Inhibitor_Dose_DryPowder_Activity. [Related pubchem assays (depositor defined):AID435007]; assay type: functional; settings: Rattus norvegicus
INS1 [23] = experiment: INS-1E mitochondrial potential rescue under cytokines – cell-based, JC-1 fluorescence ratio, dry powder, dose response (AID 488931); assay type: functional; settings: Rattus norvegicus
INS1 [24] = experiment: suppression of cytokine-induced beta-cell apoptosis – INS-1E, caspase luminescence, dry powder, beta-cell apoptosis inhibitor project, dose response (AID 488848); assay type: functional, cell-based; settings: Rattus norvegicus
[25] = Primary Beta Cell Apoptosis assay Measured in Cell-Based System Using Plate Reader - 2061-07_Inhibitor_Dose_DryPowder_Activity_Set2. [Related pubchem assays (depositor defined):AID435007]; assay type: functional; settings: Homo sapiens
[26] = suppression of NO production in INS-1E cells – cell-based, Griess absorbance, dry powder, set 3, dose response (AID 488870); assay type: functional, Rattus norvegicus
[27] = target: T8, Receptor-type tyrosine-protein kinase FLT3 (Homo sapiens, UniProt P36888); assay type: functional;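 note: FLT3 was tested as one member of a kinome-wide kinase panel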
T8 sequence (P36888 whole entry): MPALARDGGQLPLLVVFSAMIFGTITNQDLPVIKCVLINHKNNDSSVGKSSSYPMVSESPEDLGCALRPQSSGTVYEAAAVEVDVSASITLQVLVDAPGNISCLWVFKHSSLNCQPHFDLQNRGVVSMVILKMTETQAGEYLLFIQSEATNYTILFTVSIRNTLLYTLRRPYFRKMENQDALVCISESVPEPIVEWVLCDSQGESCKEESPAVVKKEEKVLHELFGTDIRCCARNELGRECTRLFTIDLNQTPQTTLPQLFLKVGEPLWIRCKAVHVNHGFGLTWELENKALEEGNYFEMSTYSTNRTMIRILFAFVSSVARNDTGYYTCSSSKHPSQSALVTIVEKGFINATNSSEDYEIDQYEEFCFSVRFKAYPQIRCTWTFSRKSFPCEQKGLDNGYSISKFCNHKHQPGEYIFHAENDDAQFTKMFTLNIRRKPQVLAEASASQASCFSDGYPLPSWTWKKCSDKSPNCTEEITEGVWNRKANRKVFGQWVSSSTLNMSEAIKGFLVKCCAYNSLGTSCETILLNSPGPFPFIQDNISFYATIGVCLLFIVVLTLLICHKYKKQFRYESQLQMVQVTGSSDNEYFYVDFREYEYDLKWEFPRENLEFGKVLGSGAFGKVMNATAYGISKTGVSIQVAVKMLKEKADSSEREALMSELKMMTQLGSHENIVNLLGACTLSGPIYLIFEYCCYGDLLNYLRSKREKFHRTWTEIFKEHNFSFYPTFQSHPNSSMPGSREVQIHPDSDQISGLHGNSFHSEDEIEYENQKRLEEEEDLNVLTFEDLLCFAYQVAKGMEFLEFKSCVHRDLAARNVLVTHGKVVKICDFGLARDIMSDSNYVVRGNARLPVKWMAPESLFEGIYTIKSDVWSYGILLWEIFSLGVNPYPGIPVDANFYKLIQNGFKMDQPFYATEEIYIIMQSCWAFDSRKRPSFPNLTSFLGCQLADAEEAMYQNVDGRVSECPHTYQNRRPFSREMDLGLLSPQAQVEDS

[28] = target: Casein kinase I isoform delta (Homo sapiens, UniProt P48730); assay type: functional;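 note: measured as one member (CSNK1D) of a kinome panel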
[29] = target: Mitogen-activated protein kinase kinase kinase 20 (Homo sapiens, UniProt Q9NYL2); assay type: functional
[30] = target: Mitogen-activated protein kinase kinase kinase kinase 5 (Homo sapiens, UniProt Q9Y4K4); assay type: functional;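 note: measured as one member of a kinome-spanning kinase panel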
Aurora kinase B = Aurora kinase B (Homo sapiens, UniProt Q96GD4); assay type: functional
Aurora kinase B, sequence (Q96GD4 whole entry): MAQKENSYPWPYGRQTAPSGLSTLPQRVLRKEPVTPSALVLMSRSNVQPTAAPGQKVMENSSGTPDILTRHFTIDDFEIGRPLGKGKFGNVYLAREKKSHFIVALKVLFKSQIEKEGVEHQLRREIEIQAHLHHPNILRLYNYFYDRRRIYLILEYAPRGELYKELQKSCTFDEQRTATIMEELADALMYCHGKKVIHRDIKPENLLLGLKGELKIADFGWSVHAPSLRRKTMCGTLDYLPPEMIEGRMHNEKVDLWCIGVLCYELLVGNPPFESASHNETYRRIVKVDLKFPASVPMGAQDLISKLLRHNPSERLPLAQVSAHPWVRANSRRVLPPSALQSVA

[31] = target: Mitogen-activated protein kinase kinase kinase kinase 4 (Homo sapiens, UniProt O95819); assay type: functional
Mitogen-activated protein kinase kinase kinase kinase 4, sequence (O95819 whole entry): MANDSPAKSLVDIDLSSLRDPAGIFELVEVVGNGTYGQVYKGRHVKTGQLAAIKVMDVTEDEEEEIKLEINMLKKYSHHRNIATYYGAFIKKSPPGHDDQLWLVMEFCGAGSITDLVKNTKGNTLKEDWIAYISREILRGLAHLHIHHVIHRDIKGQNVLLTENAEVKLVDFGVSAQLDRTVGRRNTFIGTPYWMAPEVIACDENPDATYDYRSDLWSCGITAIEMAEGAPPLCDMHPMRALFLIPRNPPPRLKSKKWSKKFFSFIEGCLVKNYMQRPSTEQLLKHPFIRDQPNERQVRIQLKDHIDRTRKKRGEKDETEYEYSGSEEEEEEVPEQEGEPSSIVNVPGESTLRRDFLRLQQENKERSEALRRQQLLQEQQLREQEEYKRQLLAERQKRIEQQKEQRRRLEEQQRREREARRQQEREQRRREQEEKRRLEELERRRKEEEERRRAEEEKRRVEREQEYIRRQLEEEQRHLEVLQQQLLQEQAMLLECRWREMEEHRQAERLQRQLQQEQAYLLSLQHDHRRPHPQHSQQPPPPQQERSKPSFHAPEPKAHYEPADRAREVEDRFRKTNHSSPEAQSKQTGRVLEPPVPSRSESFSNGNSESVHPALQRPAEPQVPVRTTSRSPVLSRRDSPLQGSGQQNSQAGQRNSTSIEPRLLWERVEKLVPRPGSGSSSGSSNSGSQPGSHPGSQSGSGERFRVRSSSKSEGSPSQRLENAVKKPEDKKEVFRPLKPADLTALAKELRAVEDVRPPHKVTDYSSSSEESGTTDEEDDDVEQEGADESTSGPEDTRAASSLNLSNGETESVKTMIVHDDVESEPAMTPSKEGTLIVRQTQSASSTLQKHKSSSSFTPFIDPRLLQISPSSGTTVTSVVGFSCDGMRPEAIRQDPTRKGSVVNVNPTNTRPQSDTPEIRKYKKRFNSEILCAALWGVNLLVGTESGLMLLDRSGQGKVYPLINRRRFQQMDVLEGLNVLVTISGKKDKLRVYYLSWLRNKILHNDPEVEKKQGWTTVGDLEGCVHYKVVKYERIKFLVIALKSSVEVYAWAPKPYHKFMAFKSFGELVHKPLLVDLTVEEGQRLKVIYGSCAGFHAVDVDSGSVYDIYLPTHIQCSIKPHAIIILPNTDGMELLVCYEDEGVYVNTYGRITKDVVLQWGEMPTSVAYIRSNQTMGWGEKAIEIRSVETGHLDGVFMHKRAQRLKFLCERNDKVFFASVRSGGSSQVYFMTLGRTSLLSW

[32] = target: Dual specificity protein kinase CLK4 (Homo sapiens, UniProt Q9HAZ1); assay type: functional

- AC50 [1]: 144 nM (active) and 206 nM (active)
- AC50 [2]: < 23 nM (active)
- AC50 [3]: 11.3 nM (active) and < 30 nM (active)
- AC50 [4]: 12.4 nM (active) and < 16 nM (active)
- AC50 [5]: 121 nM (active) and 281 nM (active)
- AC50 [6]: < 10 nM (active) and < 16 nM (active)
SMILES: O=C1Nc2ccc3ncsc3c2/C1=C/Nc1ccc(S(=O)(=O)Nc2ccccn2)cc1

SMILES: CCCN1CCC(Oc2cccc(C(=O)NCCc3ccccc3)c2)CC1
- IC50 [7]: 4.22 µM (active)
- IC50 [8]: 10 µM (active)
- IC50 [9]: 3.76 µM (active)

SMILES: O=C(CSc1ccc(-c2cccs2)nn1)c1cccs1
- IC50 [10]: 2.28 µM (active)
- IC50 (Orexin receptor type 2 [11]): > 88.8 µM (inactive)
- IC50 [12]: > 49.8 µM (inactive)
- IC50 (CHO-K1): > 66.2 µM (inactive)
- IC50 [13]: > 614 nM (active)
- IC50 (Orexin receptor type 2 [14]): > 50 µM (inactive)
- IC50 [15]: 9.5 µM (active)
- IC50 [16]: 8.97 µM (active)

- EC50 [17]: 225 nM (active)
- EC50 [18]: 590 nM (active) and 280 nM (active)
SMILES: COC(=O)c1ccc(NC(=O)COc2ccc(S(=O)(=O)N3CCCCC3)cc2)cc1

- AC50 [19]: 87 µM (active)
SMILES: COc1ccccc1NC(=O)Cn1nnc(-c2ccccc2NS(=O)(=O)c2ccccc2)n1

SMILES: CCN(c1ccccc1)S(=O)(=O)c1ccc(Cl)c(NC(=O)Nc2ccc(Cl)cc2C#N)c1
- IC50 [20]: 8.98 µM (active)
- AC50 (HEK293): 4.55 µM (active)

SMILES: C[C@@H]1CN([C@@H](C)CO)C(=O)c2cccc(NC(=O)Nc3cccc4ccccc34)c2O[C@H]1CN(C)S(=O)(=O)c1ccc2c(c1)OCCO2
- AC50 (INS1 [21]): 4.79 µM (active)
- AC50 (INS1 [22]): < 500 nM (active)
- AC50 (INS1 [23]): 83.8 µM (active)
- AC50 (INS1 [24]): 2.22 µM (active)
- AC50 [25]: 6.7 µM (active)
- AC50 [26]: 33.7 µM (active)
- AC50 ([26]; Rattus norvegicus): 57.6 µM (active)

- Ki [27]: 1.26 µM (active)
- Ki [28]: 2 µM (active)
- Ki [29]: 5.01 µM (active)
- Ki [30]: 3.98 µM (active)
- Ki (Aurora kinase B): 2.51 µM (active)
- Ki [31]: 6.31 µM (active)
- Ki [32]: 3.16 µM (active)
SMILES: c1cncc(Nc2ncc(-c3ccncn3)c(-c3ccco3)n2)c1
